Measurements taken from paper PMC7332481, “Ecotoxicity screening evaluation of selected pharmaceuticals and their transformation products towards various organisms” (Environmental Science and Pollution Research International, 2020).
≈ marks a conversion by molar mass, not a printed value.

Legend:
Lemna minor = assay: L. minor growth inhibition test; settings: for EC50 L. minor (with confidence interval 2.5–97.5%): growth rate inhibition by frond area, 7 days; for inhibition at 15 µg/mL / inhibition at 50 µg/mL: read-out: Growth inhibition of L. minor
Description: (§1) All tests were carried out in accordance with the OECD or ISO guidelines. In general the experimental part was divided into three main steps: (i) determination of the toxicity of the native forms of pharmaceuticals (their racemic mixtures), (ii) toxicity evaluation of the selected TPs of these pharmaceuticals, and (iii) preliminary toxicity assessment of the enantiomers of selected pharmaceuticals. For each assay, range-finding tests were conducted, in order to determine the range of concentrations for the definitive tests. The main tests were repeated three times in at least two parallel replicates, with a minimum of five concentrations for native forms of the selected pharmaceuticals (including their enantiomers). The exact number of replicates and concentrations tested was included in the description of each test. […] However, TPs were tested in a different manner; first, the tests were carried out at the limit concentration of 100 mg L^−1. […] Such approach was applied in order to observe the relative toxicity of the selected TP and its native form.
(§2) Dose-response curves were fitted using a linear logistic or logistic model (the model giving the best fit was chosen) (https://cran.r-project.org/web/packages/drfit/drfit.pdf). The mathematic formulas applied for this purpose are presented and described in the Supplementary Material. The EC50 values were given since log EC50 is a model parameter in the logistic as well as in linear logistic model.
One week before the assay, the inoculum cultures were prepared; eight healthy plants were placed into a new portion of the medium. Two days before the test, the plants were transferred to a fresh medium, in order to supplement nutrients and to eliminate plant metabolites. The experiments were performed in six-well plates under the conditions described above. The pH value of the Steinberg medium and all solutions was 5.5 (± 0.5). Every test included six different concentrations of compound and six controls in three replicates. The test started with one plant consisting of three fronds and the measured endpoint was the inhibition of growth rate determined by comparing the frond area (mm^2) for the treated plants and untreated controls.

Raphidocelis subcapitata = assay: R. subcapitata reproduction (growth) inhibition test; type: cell-based; settings: for inhibition at 100 µg/mL: read-out: Growth inhibition of R. subcapitata
Description: as §1, §2
Test organisms were provided from Algal Culture Collection (Universität Göttingen, Germany). […] The light-dark cycle was different from the OECD guidelines, and it was introduced to imitate natural growth conditions. In order to ensure that the algae are in the exponential growth phase when used to inoculate the test solutions, the stock culture was diluted three times a week. The test was carried out in 25 mL suspension cell culture flasks (Nunc) (working volume 10 mL). All operations were performed under sterile conditions. The initial cell concentration was 5 × 10^4 cells mL^−1. Eight different concentrations of every compound in three replicates and a minimum of six controls were used in each test. […] The test flasks were incubated on a shaker with a speed of approx. 75 rpm at the temperature and light conditions described above. Growth inhibition was calculated using the cell counts of the treated samples in relation to the untreated controls after 72 h of exposure. The cells were counted with the use of CASY TT Cell counter & analyzer.

Daphnia magna = assay: D. magna acute immobilization test; type: in vivo; settings: for mortality at 50 µg/mL: concentration 50 mg L^−1
Description: as §1, §2
Five pre-fed test organisms were incubated with the studied compounds diluted in 10 mL of test media in glass test vessels at 20 °C (± 1 °C) in darkness for 48 h. Each test consisted of a control and five different concentrations of the studied compound in four parallel replicates. In order to achieve a full dose-response relationship, the concentration series covered the range of 0–100% immobilization. The number of immobilized or dead organisms was checked after 24 and 48 h. The negative effect of exposure to the tested compounds was expressed by the number of immobilized organisms compared to the controls.

Vibrio fischeri = assay: microbe, parasite or virus in culture; type: cell-based; settings: for inhibition at 10 µg/mL: concentration 10 mg L^−1
Description: (§3) Stock solutions and dilutions were prepared in 2% NaCl in 0.02 M phosphate buffer, pH 7. The freeze-dried bacteria were rehydrated prior to testing in a reactivation solution. Culture suspensions and diluted samples were pre-incubated at 15 °C for 15 min. After the initial luminescence was measured, 0.5 mL of the culture suspension was mixed with the same volume of a diluted sample. The final bioluminescence was measured after 30 min. Incubation was kept at 15 °C (LUMIStox 300 meter, Dr. Lange GmbH, Berlin, Germany). The relative toxicity of the samples was expressed as a percentage of luminescence inhibition compared to the controls.
as §3, with “m,” for “meter,”

Arthrobacter globiformis = assay: A. globiformis dehydrogenase inhibition test (version without soil)
Description: as §1
The test strain was obtained from the German Collection of Microorganisms (DSMZ). A version of the test without soil was performed. Bacteria was grown in a sterile medium containing 10 g L^−1 peptone from casein, 5 g L^−1 yeast extract, 5 g L^−1 glucose, and 5 g L^−1 NaCl. For the test, the medium was diluted in a ratio of 1:3 in water. The inoculum was the bacteria in a log-growth phase. Cell density was adjusted to 1 × 10^8 cells mL^−1, which corresponds to an optical density (OD600nm) of 0.4. The test was performed in 24-well microplates. Each well contained 1 mL of solution of the tested compound in water and 1 mL of bacterial inoculum. Next, the plates were incubated for 2 h at 30 °C on a horizontal shaker with a speed of 100 rpm. To each well, a portion of 0.6 mL of the redox active dye resazurine (45 mg L^−1) dissolved in buffer was added. The microplates were further incubated for 1 h (30 °C, 100 rpm). To stop the reduction process, the plates were centrifuged at 3600g for 10 min. Aliquots (300 μl) of supernatant from each well were immediately transferred to the wells of a 96-well microplate in triplicates. Finally, the dehydrogenase activity was determined by measuring the formation of resorufin from resazurine using a fluorimeter ([…]). Dehydrogenase inhibition was calculated using Eq. 1.
where FBTS is the measured fluorescence of the blank (medium) with the tested substance, FTS is the measured fluorescence of the sample, FBNC is the measured fluorescence of the blank, and FNC is the measured fluorescence of the negative control (with bacteria).

[1] = growth inhibition by cell counts, 72 h
[2] = luminescence inhibition, 30 min, 15 °C
[3] = Raphidocelis subcapitata, concentration 100 mg L^−1
[4] = Aliivibrio fischeri, read-out: Luminescence inhibition

Row | SMILES | EC50 L. minor (with confidence interval 2.5–97.5%) (Lemna minor) | EC50 R. subcapitata (with confidence interval 2.5–97.5%) (Raphidocelis subcapitata; [1]) | EC50 D. magna (with confidence interval 2.5–97.5%) (Daphnia magna; immobilization, 48 h) | inhibition at 15 µg/mL (Lemna minor; Lemna minor) | inhibition at 100 µg/mL (Raphidocelis subcapitata; [3]) | inhibition at 10 µg/mL (Vibrio fischeri; [4]) | also measured
1 | CC(C)Cc1ccc([C@@H](C)C(=O)O)cc1 (single isomer, unassigned) [IBU Isomer R, R-ibuprofen] | 12.36 (10.80–14.07) mg L^−1 | 11.65 (10.21–13.26) mg L^−1 | 65.83 (59.54–72.54) mg L^−1 | – | – | – | –
2 | COc1ccc2cc([C@@H](C)C(=O)O)ccc2c1 (single isomer, unassigned) [NAP Isomer R, R-naproxen] | 22.37 (20.76–24.04) mg L^−1 | 21.08 (19.64–22.59) mg L^−1 | 97.35 (91.90–104.95) mg L^−1 | – | – | – | EC50 V. fischeri (with confidence interval 2.5–97.5%) (Vibrio fischeri; [2]): 7.53 (7.11–7.99) mg L^−1
3 | COc1ccc2cc([C@H](C)C(=O)O)ccc2c1 (single isomer, unassigned) [NAP Isomer S, S-naproxen] | 29.14 (27.19–31.40) mg L^−1 | 27.80 (25.67–30.05) mg L^−1 | 68.76 (54.64–90.98) mg L^−1 | – | – | – | EC50 V. fischeri (with confidence interval 2.5–97.5%) (Vibrio fischeri; [2]): 20.60 (19.50–21.75) mg L^−1
4 | CC(C(=O)O)c1ccc(CC(C)(C)O)cc1 (stereo not drawn) [2-OH-IBU, 2-Hydroxyibuprofen] | – | – | – | 11% | 16% | 4% | mortality at 50 µg/mL (Daphnia magna; Daphnia magna): 0%
5 | O=C(O)Cc1ccccc1Nc1c(Cl)cc(O)cc1Cl [4-OH-DIC, 4☒Hydroxydiclofenac] | – | – | – | 0% | – | 38% | inhibition at 50 µg/mL (Raphidocelis subcapitata; Raphidocelis subcapitata, concentration 50 mg L^−1): 45%; mortality at 60 µg/mL (Daphnia magna; Daphnia magna, concentration 60 mg L^−1): 8%; inhibition at 100 µg/mL (Arthrobacter globiformis; read-out: inhibition of bacterial growth (A. globiformis)): 14%
6 | NC(=O)N1c2ccccc2CC(O)c2ccccc21 (stereo not drawn) [10-OH-CRB, 10,11-Dihydro-10-hydroxycarbamazepine] | – | – | – | – | 15% | – | inhibition at 50 µg/mL (Lemna minor; Lemna minor): 11%
7 | CC(Cc1ccc(C(C)C(=O)O)cc1)C(=O)O (stereo not drawn) [CBX-IBU, Carboxyibuprofen] | – | – | – | 6% | 14% | 2% | mortality at 50 µg/mL (Daphnia magna; Daphnia magna): 8%
8 | NC(=O)N1c2ccccc2C=Cc2ccccc21 [CRB, Carbamazepine] | – | – | – | – | 49% | – | EC50 (Lemna minor; Lemna minor, 168 h, read-out: EC50 L. minor (with confidence interval 2.5–97.5%), growth rate inhibition by frond area, 7 days): 50.2 µg/mL (≈ 212 µM); inhibition at 50 µg/mL (Lemna minor; Lemna minor): 49%; EC50 (Raphidocelis subcapitata; Raphidocelis subcapitata, 72 h, growth inhibition by cell counts, 72 h, read-out: EC50 R. subcapitata (with confidence interval 2.5–97.5%)): > 100 µg/mL; Growth inhibition of R. subcapitata (Raphidocelis subcapitata; concentration 100 mg L^−1): 48%; EC50 (Vibrio fischeri; Aliivibrio fischeri, 0.5 h, luminescence inhibition, 30 min, 15 °C, read-out: EC50 V. fischeri (with confidence interval 2.5–97.5%)): > 100 µg/mL; inhibition at 100 µg/mL (Vibrio fischeri; Aliivibrio fischeri, concentration 100 mg L^−1, read-out: Luminescence inhibition): 42%; mortality at 100 µg/mL (Daphnia magna; Daphnia magna, concentration 100 mg L^−1): 24%; EC50 (Daphnia magna; Daphnia magna, immobilization, 48 h, read-out: EC50 D. magna (with confidence interval 2.5–97.5%)): > 100 µg/mL; EC50 (Arthrobacter globiformis; read-out: EC50 A. globiformis): > 100 µg/mL
